# Source: patent US3945994A, “Novel acid compounds” (Gist-Brocades N.V., priority 1973, dated 1976)
# Experiments:
# Type in all cases: cell-based
# [1] = test system: Bacillus subtilis ATCC 6633; conditions: ATCC6633, agar serial dilution, 24 hours at 37°C
# [2] = test system: Staphylococcus aureus A 321; conditions: A321, agar serial dilution, 24 hours at 37°C
# [3] = test system: Staphylococcus aureus A 355'; conditions: agar serial dilution, 24 hours at 37°C
# [4] = test system: Staphylococcus aureus A 2000; conditions: A2000, agar serial dilution, 24 hours at 37°C
# [5] = test system: Staphylococcus aureus A 2001; conditions: A2001, agar serial dilution, 24 hours at 37°C
# [6] = test system: Streptococcus haemolyticus A 266; conditions: A266, agar serial dilution, 24 hours at 37°C
# [7] = test system: Streptococcus faecalis L 80; conditions: Enterococcus faecalis, L80; agar serial dilution, 24 hours at 37°C
# [8] = test system: Diplococcus pneumoniae L 54; conditions: Streptococcus pneumoniae, L54; agar serial dilution, 24 hours at 37°C
# [9] = test system: Pasteurella multocida A 723; conditions: A723, agar serial dilution, 24 hours at 37°C
# [10] = test system: Klebsiella pneumoniae A 809; conditions: A809, agar serial dilution, 24 hours at 37°C
# [11] = test system: Salmonella dublin P 43; conditions: Salmonella enterica, P43; agar serial dilution, 24 hours at 37°C
# [12] = test system: Salmonella typhimurium R 127; conditions: Salmonella enterica, agar serial dilution, 24 hours at 37°C
# [13] = test system: Escherichia coli U 20; conditions: U20, agar serial dilution, 24 hours at 37°C
# [14] = test system: Pseudomonas aeruginosa H 10; conditions: H10, agar serial dilution, 24 hours at 37°C
# [15] = test system: Pseudomonas aeruginosa 2396; conditions: agar serial dilution, 24 hours at 37°C
# [16] = test system: Pseudomonas aeruginosa Wyeth A 1058; conditions: WYETHA1058, agar serial dilution, 24 hours at 37°C
# [17] = test system: Proteus rettgeri A 821; conditions: Providencia rettgeri, A821; agar serial dilution, 24 hours at 37°C
# [18] = test system: Proteus mirabilis H 3; conditions: H3, agar serial dilution, 24 hours at 37°C
# [19] = test system: Proteus mirabilis A 1200; conditions: A1200, agar serial dilution, 24 hours at 37°C
# [20] = test system: Proteus morganii 2241; conditions: Morganella morganii, agar serial dilution, 24 hours at 37°C
# [21] = test system: Salmonella typhimurium R172; conditions: Salmonella enterica, agar serial dilution, 24 hours at 37°C
# [22] = test system: Streptococcus haemolyticus A 1088; conditions: A1088, agar serial dilution, 24 hours at 37°C
# [23] = test system: Haemophilus influenzae A 1030; assay: micro serial dilution test, MIC; conditions: A1030, micro serial dilution (between brackets), 30°C or 37°C, about 18 hours
MIC [1] [µg/mL],MIC [2] [µg/mL],MIC [3] [µg/mL],MIC [4] [µg/mL],MIC [5] [µg/mL],MIC [7] [µg/mL],MIC [8] [µg/mL],MIC [9] [µg/mL],MIC [10] [µg/mL],MIC [11] [µg/mL],MIC [12] [µg/mL],MIC [13] [µg/mL],MIC [14] [µg/mL],MIC [15] [µg/mL],MIC [16] [µg/mL],MIC [17] [µg/mL],MIC [18] [µg/mL],MIC [19] [µg/mL],MIC [20] [µg/mL],Structure (SMILES),MIC [6] [µg/mL],further results
0.25,1.5,50,12.5,6,25,6,> 100,> 100,6,25,12.5,100,25,25,1.5,12.5,1.5,> 100,"CCOS(=O)(=O)NC(=O)N[C@@H](C(=O)N[C@@H]1C(=O)N2[C@@H]1SC(C)(C)[C@@H]2C(=O)O)c1ccccc1 [VI, D-6-[α-{3-(ethoxysulfonyl)-ureido}-benzylcarbonamido]-penicillanic acid]",0.25,–
1,1,25,12.5,3,25,1,25,25,12.5,25,12.5,50,25,50,1.5,3,3,25,"CC1(C)S[C@@H]2[C@H](NC(=O)[C@H](NC(=O)NS(=O)(=O)Nc3ccccc3)c3ccccc3)C(=O)N2[C@H]1C(=O)O [VII, D-6-[α-{3-(phenylaminosulfonyl)-ureido}-benzylcarbonamido]-penicillanic acid]",1,–
1,1,–,–,6,6,1,6,25,25,100,25,100,50,50,25,100,50,100,"CC(C)N(C(C)C)S(=O)(=O)NC(=O)N[C@@H](C(=O)N[C@@H]1C(=O)N2[C@@H]1SC(C)(C)[C@@H]2C(=O)O)c1ccccc1 [VIII, D-6-[α-{3-(diisopropylaminosulfonyl)-ureido}-benzylcarbonamido]-penicillanic acid]",0.25,–
1,3,25,12.5,12.5,25,1.5,0.25,100,25,50,25,> 100,100,25,< 0.75,1.5,3,50,"CCOC(=O)CNS(=O)(=O)NC(=O)N[C@@H](C(=O)N[C@@H]1C(=O)N2[C@@H]1SC(C)(C)[C@@H]2C(=O)O)c1ccccc1 [X, D-6-[α-{3-(ethoxycarbonylmethylaminosulfonyl)-ureido}-benzylcarbonamido]-penicillanic acid]",0.25,–
0.25,3,–,–,–,6,0.25,0.5,> 100,50,> 100,> 100,> 100,50,50,3,< 0.75,–,> 100,"CC1(C)S[C@@H]2[C@H](NC(=O)[C@H](NC(=O)NS(=O)(=O)Nc3cccnc3)c3ccccc3)C(=O)N2[C@H]1C(=O)O [XI, D-6-[α-{3-(pyrid-3-ylaminosulfonyl)-ureido}-benzylcarbonamido]-penicillanic acid]",0.12,–
0.5,1,25,12.5,3,12.5,1.5,0.12,100,25,50,12.5,100,50,25,3,12.5,6,100,"Cc1noc(NS(=O)(=O)NC(=O)N[C@@H](C(=O)N[C@@H]2C(=O)N3[C@@H]2SC(C)(C)[C@@H]3C(=O)O)c2ccccc2)c1C [XIII, D-6-[α-{3-(3,4-dimethylisoxazol-5-yl-aminosulfonyl)ureido}-benzylcarbonamido]-penicillanic acid]",0.12,–
1,3,50,12.5,6,25,3,0.5,> 100,50,100,100,> 100,100,50,3,25,25,> 100,"CCOC(=O)NS(=O)(=O)N[C@@H](C(=O)N[C@@H]1C(=O)N2[C@@H]1SC(C)(C)[C@@H]2C(=O)O)c1ccccc1 [XIX, D-6-[α-(ethoxycarbonylaminosulfonylamino)-benzylcarbonamido]-penicillanic acid]",0.25,–
0.5,3,12.5,12.5,12.5,25,0.25,0.12,100,6,50,25,50,25,25,< 0.75,< 0.75,3,50,"CC1(C)S[C@@H]2[C@H](NC(=O)[C@H](NC(=O)NS(=O)(=O)O)c3ccccc3)C(=O)N2[C@H]1C(=O)O [XVII, D-6-[α-{3-(sulfo)-ureido}-benzylcarbonamido]-penicillanic acid]",0.12,–
0.025,0.1,1.5,1.5,0.75,–,0.05,0.2,50,0.8,–,3,> 100,50,> 100,3,3,3,–,"CC1(C)S[C@@H]2C(NC(=O)C(N)c3ccccc3)C(=O)N2[C@H]1C(=O)O (stereo partly drawn) [ampicillin, 6-(α-aminophenylacetamido) penicillanic acid, reference compound]",–,MIC [21]: 3 µg/mL
0.12,0.75,1.5,1.5,0.5,12.5,0.5,6,6,12.5,–,6,> 100,> 100,> 100,3,12.5,12.5,> 100,"CC(=O)OCC1=C(C(=O)O)N2C(=O)[C@@H](NC(=O)CC#N)[C@H]2SC1 [cephacetril, reference compound]",–,MIC [22]: 0.5 µg/mL; MIC [21]: 12.5 µg/mL; MIC [23]: 30 µg/mL
0.25,12.5,12.5,12.5,12.5,> 100,6,50,6,12.5,–,1.5,> 100,> 100,> 100,1.5,25,12.5,100,"CC(=O)OCC1=C(C(=O)O)N2C(=O)[C@@H](NC(=O)[C@H](N)c3ccccc3)[C@H]2SC1 [cephaloglycin, 7-(α-aminophenylacetamido) cephalosporanic acid, reference compound]",–,MIC [22]: 0.25 µg/mL; MIC [21]: 12.5 µg/mL; MIC [23]: 125 µg/mL
